Reference: the SangsterLogP compilation

Tests used:
[1] = method code SF, from DOI: 10.1016/0048-3575(89)90162-4
[2] = method code SF-HPLC, from PMID: 18557421; settings: pH 1.0
[3] = method code SF-HPLC, from DOI: 10.1016/0378-5173(95)00102-o
[4] = method code SF-HPLC, from DOI: 10.1021/je049947x
[5] = method code SF, from DOI: 10.1021/jm5017544, PMID: 25671691; settings: pH 7.4
[6] = not given; remark: listed apart in the source
[7] = not given; remark: listed apart in the source
[8] = not given; remark: listed apart in the source
[9] = not given; remark: listed apart in the source
[10] = not given; remark: listed apart in the source
[11] = not given; remark: listed apart in the source
[12] = not given; remark: listed apart in the source
[13] = method code SF-RC, from DOI: 10.1016/j.nucmedbio.2007.07.017, PMID: 17998101; settings: pH 7.4
[14] = method code SF-RC, from DOI: 10.1016/j.nucmedbio.2009.09.005, PMID: 20447558; settings: pH 7.4
[15] = method code SF-MB, from DOI: 10.1016/0378-5173(83)90017-0; settings: pH 3.5
[16] = not given; remark: listed apart in the source
[17] = method code SF, from DOI: 10.1248/cpb.18.708; settings: pH 6.4
[18] = method code SF-AS, from Kofitsekpo, W. (1980). An experimental evaluation of the log P of oxamniquine - a new schistosomicide. Drugs under experimental and clinical research, 6(5)421-426.
[19] = not given; remark: listed apart in the source
[20] = not given; remark: listed apart in the source
[21] = method code SF-AS, from DOI: 10.1021/jf990946w, PMID: 10888534
[22] = method code SF, from DOI: 10.1023/a:1007583422634, PMID: 11028945; settings: pH 7.4
[23] = not given; remark: listed apart in the source
[24] = method code SF-AS, from DOI: 10.1155/2011/965826, PMID: 22295208
[25] = method code SF, from DOI: 10.1016/0378-5173(91)90120-d
[26] = method code SF-AS, from Pogodaeva, N.; Medvedeva, S. (2005). Hydrophobic properties of a number of monosubstituted flavone and flavanone derivatives. Russian Journal of Physical Chemistry A, 79(4)645-648.
[27] = not given; remark: listed apart in the source
[28] = not given; remark: listed apart in the source
[29] = method code SF-SF, from DOI: 10.1016/j.ejps.2010.09.003, PMID: 20854904; settings: pH 10.0
[30] = not given; remark: listed apart in the source
[31] = method code SF-RC, from DOI: 10.1016/s0024-3205(01)01232-2; settings: pH 7.4
[32] = not given; remark: listed apart in the source
[33] = method code SF-HPLC, from DOI: 10.1023/a:1015968113838, PMID: 3247280; settings: pH 7.4
[34] = not given; remark: listed apart in the source
[35] = method code SF, from DOI: 10.1016/0223-5234(96)89550-x
[36] = method code SF-AS, from Lippold, B.; Lichey, J. (1984). Transport of drugs through lipophilic polymer membranes. II. Influence of the partition and diffusion coefficients. Acta pharmaceutica technologica, 30(2)140-154.
[37] = method code SF-RC, from Bracha, P.; O'Brien, D. (1966). The relation between physical properties and uptake of insecticides by eggs of the large milkweed bug. J Econ Entomol, 59(5)1255-1264.
[38] = not given; remark: listed apart in the source
[39] = not given; remark: listed apart in the source
[40] = method code SF-RC, from DOI: 10.1016/s0968-0896(99)00108-x, PMID: 10530922; settings: pH 7.2
[41] = method code SF-RC, from DOI: 10.1016/s0969-8051(02)00326-8, PMID: 12234587; settings: pH 7.4
[42] = not given; remark: listed apart in the source
[43] = method code SF-AS, from DOI: 10.1021/jm00384a018, PMID: 3806586
[44] = method code SF-RC, from DOI: 10.1016/j.nucmedbio.2010.09.012, PMID: 21492779; settings: pH 7.4
[45] = method code SF-GLC, from DOI: 10.1021/es60128a001
[46] = method code SF-HPLC, from DOI: 10.1002/ps.2780130506
[47] = not given; remark: listed apart in the source
[48] = method code SF, from PMID: 2161451; settings: pH 7.4
[49] = method code SF, from Kim, K.; Kim, J.; Kim, Y. (1997). Study on physicochemical properties of pesticides. II. Hanguk Nonghwa Hakhoe Chi, 40(1)76-79.

OC1(c2cc(Cl)ccc2Cl)CCCCC1n1cncn1 (stereo not given)
logP [1]: 3.24

COc1c(O)cc2c(c1O)C1OC(CO)C(O)C(O)C1OC2=O (stereo not given)
logD [2]: -1.06

CCCCCCCCOC(=O)c1cccnc1
logP [3]: 4.71

Cc1cccc(C)c1N(Cn1cccn1)C(=O)CCl
logP [4]: 2.22

Nc1ccc(-c2ccc3ccccc3n2)cc1
logD [5]: 1.85

S=C(CCCCC1CCSS1)NCCN1CCOCC1 (stereo not given)
logP: 2.9

Cc1c(-c2ccc(OCCCc3c[nH]cn3)cc2)no[n+]1[O-]
logP [6]: 2.4

COc1cccc(N2CCN(CCN(C)C)C2=O)c1
logP [7]: 1.76

CC(C)(C)C(=O)CC(C(O)C(C)(C)C)n1cncn1 (stereo not given)
logP [8]: 1.95

CCCOC(=O)c1ccccc1C(=O)OCCC
logP [9]: 4.05

COc1cc(Cc2cnc(N)nc2N)c(I)c(OC)c1OC
logP [10]: 1.79

O=C1c2ccccc2C(=O)C1c1ccccc1
logP [11]: 2.5

Cc1ccc2ccc3ccccc3c2c1
logP [12]: 5.15

FCCON=C1C=C(C#Cc2ccccn2)CCC1
logD [13]: 2.1

CC(C1CCCCC1)N(C)C(=O)c1ccc[nH]1 (stereo not given)
logD [14]: 1.48

CCCCCC(=O)N[C@@H]1C(=O)N2[C@@H]1SC(C)(C)[C@@H]2C(=O)O
logD [15]: 2.37

CCCCCCCCc1ccccc1
logP [16]: 6.5

Cc1cc(C)cc(NS(=O)(=O)c2ccc(N)cc2)c1
logD [17]: 2.52

CC(C)NCC1CCc2cc(CO)c([N+](=O)[O-])cc2N1 (stereo not given)
logP [18]: 2.24

O=c1c(O)c(-c2ccc(O)c(O)c2)oc2cc(O)cc(O)c12
logP [19]: 2.13

CCn1cc(C(=O)O)c(=O)c2cc([N+](=O)[O-])c(NCCO)cc21
logP [20]: 0.98

O=c1c(O)c(-c2cc(O)c(O)c(O)c2)oc2cc(O)cc(O)c12
logP [21]: 0.72

CCCCCOC(=O)[C@@H](N)Cc1ccc(O)c(O)c1
logD [22]: 1.5

Cc1c2ccccc2cc2ccccc12
logP [23]: 4.96

CC(=O)OC[C@H]1O[C@@H](n2cnc(N)nc2=O)[C@H](OC(C)=O)[C@@H]1OC(C)=O
logP [24]: -0.61

Cc1cccc(Nc2ccccc2C(=O)O)c1C
logP [25]: 4.38

O=C1c2ccccc2OC(c2ccccc2)C1O (stereo not given)
logP [26]: 2.57

CC(C)Cn1cnc2c(N)nc3ccccc3c21
logP [27]: 2.89

COc1ccc(CN2CCNCC2)c(OC)c1OC
logP [28]: 1.04

CN1CCN(CCC(=O)c2ccccc2)CC1
logD [29]: 1.12

CC1CCCC(C)N1NC(=O)c1ccc(Cl)c(S(N)(=O)=O)c1 (stereo not given)
logP [30]: 1.18

CNc1ccc(-c2nc3ccc(C)cc3s2)cc1
logD [31]: 3.36

CCCN(CCOc1c(Cl)cc(Cl)cc1Cl)C(=O)n1ccnc1
logP [32]: 4.1

CC(C)(C)C(=O)OCC1OC(n2cc(I)c(=O)[nH]c2=O)CC1O (stereo not given)
logD [33]: 1.34

CC(C(=O)O)c1ccc2c(c1)[nH]c1ccc(Cl)cc12 (stereo not given)
logP [34]: 4.04

O=C(Nc1ccn(C2CSC(CO)O2)c(=O)n1)c1cccnc1 (stereo not given)
logP [35]: 0.84

Cc1ccc(Cl)c(OCC(O)CNC(C)(C)C)c1 (stereo not given)
logP [36]: 2.8

CNC(=O)Oc1cc(C(C)C)cc(C(C)C)c1
logP [37]: 3.55

CCOC(=O)CCCn1c(=O)oc2ccccc2c1=O
logP [38]: 0.63

COC(=O)C1(O)c2ccccc2-c2ccccc21
logP [39]: 1.67

CSc1ccc(COCCCc2c[nH]cn2)cc1
logD [40]: 1.88

CNc1ccc(-c2cc3cc(I)ccc3o2)cc1
logD [41]: 2.04

CC(C)(c1cc(Br)c(O)c(Br)c1)c1cc(Br)c(O)c(Br)c1
logP [42]: 5.2

CC(O)C1=CCN(NC(=O)c2ccccc2)CC1 (stereo not given)
logP [43]: 0.04

CN(C)c1ccc(-c2nc3ccc(I)cc3[nH]2)cc1
logD [44]: 2.8

CCOP(=S)(OCC)SC(CCl)N1C(=O)c2ccccc2C1=O (stereo not given)
logP [45]: 4.69

CNC(=O)ON=Cc1cccc(Oc2ccccc2)c1
logP [46]: 3.12

CCN(CC)CCNC(=O)c1cc(Br)c(N)cc1OC
logP [47]: 2.62

CCOC(=O)c1ncn2c1CN(C)C(=O)c1c(I)cccc1-2
logD [48]: 1.48

CCOP(=S)(OCC)Oc1cc(C(F)(F)F)nn1-c1ccccc1
logP [49]: 5.24
